Laboratory results as given in US9518038B2, “Condensation product of theanine derivative and carboxylic acid coumarin derivative, its intermediate, preparation method and use thereof” (SHANDONG YINGDONG YINGHAO BIOTECHNOLOGY, INC., priority 2012, dated 2016).

Assays:
p53 = test: Western Blotting, increase of p53 level; assay type: cell-based; details: liver cancer cells, Lewis lung cancer cells and other cancer cell lines and tumor tissue protein lysates, 48 h treatment, read-out: Effective concentration to increase p53 by 50%
Description: (§1) Antibodies: primary antibodies of VEGFR, EGFR, c-Met, K-Ras, H-Ras, Akt, NF-κB, Cyclin D1, ER-alpha, Dvl-1, Dvl-2, Dvl-3, MMP-9, MMP2, β-catenin, Bcl-2, Bax, p53, p21, E-cadherin and Caspase3 protein, purchased from American Cell Signaling Technology Company and Santa Cruz Technology Company; and H3 acetylation, H4 acetylation and HDAC (HDAC3, HDAC4 and the like) Antibody Sample Kits, purchased from Cell Signaling Technology Company of the U.S.
(§2) (3) polyacrylamide gel electrophoresis (SDS-PAGE): an equal amount of protein lysate sample was used to separate protein, film transfer, and blocking, treated with appropriate primary antibodies and secondary antibodies in sequence, and the film was washed, then the color was developed with ECL kit, and a blot protein band was detected by exposure of an X-ray film; and a Gel-Pro Analyzer was used for quantitative analysis of gray degree, optical density value of the control group and the drug treatment group in various concentration were respectively compared with that of internal reference, the obtained ratios were respectively compared with the control group, and the protein expression level was semi-quantified.

[1] = system: human pancreatic cancer cells PANC-1; test: MTT growth inhibition, PANC-1 cells; assay type: cell-based; details: 72 h after treatment, read-out: Drug concentration (IC50) at which 50% cancer cells survived
Description: (§3) Cell lines and cell culture: human lung cancer cells A549 and H460, human breast cancer cells MCF-7 and MDA-MB-231, human gastric cancer cells BGC-823, human prostate cancer cells PC-3, human chronic leukemia cells K562, human lymphoma cells U937, human liver cancer cells SMMC7721 and HepG2, human colon cancer cells HT29, human pancreatic cancer cells PANC-1 and BxPC3, human cervical cancer Hela cell lines, human brain tumor cells Daoy, human neuroma cells D54 and human oral epidermoid cancer cells KBV200 line with strong drug resistance, mouse melanoma cells B16, and highly metastatic Lewis lung cancer cell lines were purchased from American Type Culture Collection of the U.S. These cells were cultured with DMEM and RPMI-1640 culture solutions separately.
(§4) The procedure was as follows:
(§5) (1) 0.25% trypsin was used to digest cancer cells in a logarithmic growth phase to prepare a single-cell suspension, the concentration of cells was adjusted to 5×10^4/mL, and the adjusted suspension was inoculated into a 96-well culture plate with 100 μl per well;
(§6) (2) The culture plate was transferred into a 37° C. incubator with a saturated humidity and 5% of CO2 and cultured for 24 h; the compounds and the intermediates thereof obtained in embodiments 1-7 and the compound as represented by formula (IIIa) or the positive control anti-cancer drug with the concentration of 1-1000 μM/L were added to enable the final concentration to be 0.1-1500 μM/L. Control wells (only added with 200 μl of cell suspension) and drug-free blank control wells (containing the solvent of 0.01% DMSO) were set, each group included 8 wells, and the plate was placed into the 37° C. incubator with saturated humidity and 5% of CO2 for culturing;
(§7) (3) The 96-well plate was taken out at 48 h and 72 h after dosing, the original culture medium was carefully removed by suction, 100 μl of serum-free DMEM culture medium and 10 μl of MTT (5 mg/mL) solution were added in each well. The plate was continuously cultured for another 4 h and then the culture was terminated;
(§8) (4) The supernatant in the wells was carefully removed by suction, each well was added with 150 μl of DMSO and shaked at room temperature for 10-15 min to fully dissolve crystals.
(§9) (5) Colorimetric analysis: the wavelength was selected as 570 nm, the light absorbance (A value) of each well was determined on the microplate reader and the results were recorded; the experiment was repeated for three times;
(§10) (6) the experimental results were calculated according to the following formula: relative survival rate=(A value of each experimental group/A value of cell control group)×100%
(§11) Calculation of median-effect concentration (IC50, namely the drug concentration at which the inhibition rate is 50%, also known as half inhibitory concentration):
(§12) IC50 of the detected component was calculated by using a regression equation.

[2] = system: human liver cancer cells SMMC7721; test: MTT growth inhibition, SMMC7721 cells; assay type: cell-based; details: SMMC-7721, S-7721 (SMMC7721), 72 h after treatment, read-out: Drug concentration (IC50) at which 50% cancer cells survived
Description: as §3, §4, §5, §6, §7, §8, §9, §10, §11, §12

[3] = system: human lung cancer cells A549; test: MTT growth inhibition, A549 cells; assay type: cell-based; details: 72 h after treatment, read-out: Drug concentration (IC50) at which 50% cancer cells survived
Description: as §3, §4, §5, §6, §7, §8, §9, §10, §11, §12

Akt = test: Western Blotting, Akt level; assay type: cell-based; details: human liver cancer cells, Lewis lung cancer cells and other cancer cell lines and tumor tissues, read-out: Effective concentration (IC50) for inhibition of Akt
Description: as §1, §2

[4] = system: human liver cancer cells HepG2; test: MTT growth inhibition, HepG2 cells; assay type: cell-based; details: 72 h after treatment, read-out: Drug concentration (IC50) at which 50% cancer cells survived
Description: as §3, §4, §5, §6, §7, §8, §9, §10, §11, §12

mouse melanoma cells B16 = test: MTT growth inhibition, B16 cells; assay type: cell-based; details: Mus musculus, 72 h after treatment, read-out: Drug concentration (IC50) at which 50% cancer cells survived
Description: as §3, §4, §5, §6, §7, §8, §9, §10, §11, §12

[5] = system: human chronic leukemia cells K562; test: MTT growth inhibition, K562 cells; assay type: cell-based; details: 72 h after treatment, read-out: Drug concentration (IC50) at which 50% cancer cells survived
Description: as §3, §4, §5, §6, §7, §8, §9, §10, §11, §12

p21 = test: Western Blotting, increase of p21 level; assay type: cell-based; details: liver cancer cells, Lewis lung cancer cells and other cancer cell lines and tumor tissue protein lysates, 48 h treatment, read-out: Effective concentration to increase p21 by 50%
Description: as §1, §2

[6] = system: human pancreatic cancer cells PANC-1 xenograft; test: In-vivo growth of PANC-1 xenografts in nude mice; parameters: species or system BALB/c nude mice; details: Mus musculus, ip, vs DMSO solvent control, read-out: Curative effect (inhibition rate %) of tumor weight; for inhibition in vivo at 60 mg/kg: 60 mg/kg intraperitoneal once a day; for inhibition in vivo at 90 mg/kg: 90 mg/kg intraperitoneal once a day
Protocol: RPMI1640 and DMEM culture solutions: Hyclone Company; inactivated fetal bovine serum: Hyclone Company, preserved at −20° C.; trypsin: Amersco Company; and 0.4% trypan blue: Sigma Company;
(3) Observation of growth of tumors in nude mice: the activities (including food intake, traits of urine and stool, mental state and the like) of the nude mice and the tumor growth time and growth situation of the transplanted tumors were observed every day, the body weight and the size of the tumors were measured once every 2-3 days. The long diameter a and the short diameter b (mm) of each tumor were measured by a vernier caliper to calculate the volume, wherein the volume V=π1/2·ab^2 (mm^3);
(4) sacrifice of animals: the mice were anesthetized and photoed after treatment experiments; the nude mice were sacrificed by breaking neck, the tumor tissues were stripped under sterile conditions and the weight of the tumors was weighed; and the effects of the drugs on pathology and toxicity of the various organs and tissues were detected.

HDAC4 = test: Western Blotting, HDAC4 level; assay type: cell-based; details: human liver cancer cells, Lewis lung cancer cells and other cancer cell lines and tumor tissues, read-out: Effective concentration (IC50) for inhibition of HDAC4
Description: as §1, §2

[7] = system: highly metastatic Lewis lung cancer cell lines; test: MTT growth inhibition, LLC cells; assay type: cell-based, mouse; details: Mus musculus, Lewis lung carcinoma, 72 h after treatment, read-out: Drug concentration (IC50) at which 50% cancer cells survived
Description: as §3, §4, §5, §6, §7, §8, §9, §10, §11, §12

SMILES	EC50 (p53)	IC50 [1]	IC50 [2]	IC50 [3]	IC50 (Akt)	IC50 [4]	IC50 (mouse melanoma cells B16)	IC50 [5]	EC50 (p21)	inhibition in vivo at 60 mg/kg [6]	inhibition in vivo at 90 mg/kg [6]	IC50 (HDAC4)	IC50 [7]
CCNC(=O)CCC(NC(=O)c1cc2ccccc2oc1=O)C(=O)OCC (centres unmarked) [Compound Ib, ethyl 5-ethylamino-5-oxo-2-(2-oxo-2H-benzopyran-3-carboxamido)pentanoate]	< 120 µM	65 µM	17 µM	125 ± 50 µM	< 120 µM	225 µM	110 µM	150 µM	< 120 µM	54.6%	65.9%	< 60 µM	115 µM
CCNC(=O)CC[C@@H](NC(=O)c1cc2cc(Cl)ccc2oc1=O)C(=O)OCC [Compound Ic, (R)-2-(6-CI-2-oxo-2H-benzopyran-3-carboxamido)-5-ethylamino-5-oxo-pentanoic acid ethyl ester]	< 100 µM	54 µM	75 µM	128 ± 60 µM	< 100 µM	93 µM	125 µM	105 µM	< 100 µM	56.5%	66.7%	< 50 µM	131 µM
CCNC(=O)CC[C@@H](NC(=O)c1cc2cc(Br)ccc2oc1=O)C(=O)OCC [Compound Id, (R)-2-(6-Br-2-oxo-2H-benzopyran-3-carboxamido)-5-ethylamino-5-oxo-pentanoic acid ethyl ester]	< 100 µM	55 µM	65 µM	139 ± 50 µM	< 100 µM	125 µM	120 µM	125 µM	< 100 µM	54.2%	64.8%	< 50 µM	116 µM
CCNC(=O)CC[C@@H](NC(=O)c1cc2cc(Cl)cc(Cl)c2oc1=O)C(=O)OCC [Compound Ig, (R)-2-(6,8-dichloro-2-oxo-2H-benzopyran-3-carboxamido)-5-ethylamino-5-oxo-pentanoic ethyl ester]	< 70 µM	71 µM	78 µM	45 µM	< 70 µM	46 µM	125 µM	57 µM	< 70 µM	55.6%	68.9%	< 50 µM	36 µM
CCNC(=O)CC[C@@H](NC(=O)c1cc2cc(Br)cc(Br)c2oc1=O)C(=O)OCC [Compound Ih, (R)-2-(6,8-dibromo-2-oxo-2H-benzopyran-3-carboxamido)-5-ethylamino-5-oxo-pentanoic ethyl ester]	< 70 µM	78 µM	86 µM	56 µM	< 70 µM	56 µM	146 µM	79 µM	< 100 µM	51.3%	67.3%	< 50 µM	53 µM
